# Experimental data from patent US10114018B2, “IL-2 peptide derivatives, and uses thereof for the diagnosis and treatment of an autoimmune disease” (INSERM (INSTITUT NATIONAL DE LA SANTÉ ET DE LA RECHERCHE …, priority 2014, dated 2018).
# System: PBMCs from HD or T1D patients
# Test: Quantification of IL-2 specific T cells by IFN-g ELISPOT
# Type: cell-based, human
# Details: peptides 10 μM/each; T1D patients (n=13) vs HD (n=14) PBMCs
# Method: IFN-g production by PBMCs from HD (n=14, closed circles) or T1D patients (n=13, open circles) was quantified by ELISPOT after stimulation with hIL-2 or Proleukin (Pro) peptides (10 μM/each) that gave a positive response in the initial pool screening, intracellular IA-2, adenovirus lysate (AdV) or PHA.
sequence,measurement,value
EFLNRWITFSQSIIS (Synthetic fragment) [Pro116-130],"IFN-g production by PBMCs (ELISPOT, IFN-g spot-forming cells/10^6 PBMCs)",can induce IFN-g production in a significantly higher frequency of T1D PBMCs compared to HD PBMCs
